Measurements from ChEMBL document CHEMBL5528082 (J Med Chem, 2024).
Converted amounts (≈) assume the structure as drawn.

Columns and labels:
[1] = Cytotoxicity against HEK293 cells assessed as inhibition rate of cell growth at 100 uM incubated for 24 hrs by CCK8 assay relative to control; type: toxicity, cell-based; conditions: human
Staphylococcus aureus [2] = assay: Antibacterial activity against Staphylococcus aureus ATCC 25923 incubated for 24 hrs by CLSI based broth microdilution assay; type: functional
Staphylococcus aureus [3] = assay: Antibacterial activity against Staphylococcus aureus USA 300 incubated for 24 hrs by CLSI based broth microdilution assay; type: functional
Staphylococcus aureus [4] = assay: Antibacterial activity against TMP-resistant Staphylococcus aureus BHKS 227 incubated for 24 hrs by CLSI based broth microdilution assay; type: functional
Staphylococcus aureus [5] = assay: Antibacterial activity against TMP-resistant Staphylococcus aureus BHKS 721 incubated for 24 hrs by CLSI based broth microdilution assay; type: functional
Staphylococcus aureus [6] = assay: Antibacterial activity against TMP-resistant Staphylococcus aureus BHKS 723 incubated for 24 hrs by CLSI based broth microdilution assay; type: functional
[7] = test system: Dihydrofolate reductase (Staphylococcus aureus); conditions: dose 100.0 nM
[8] = Cytotoxicity against human NCM460 cells assessed as inhibition rate of cell growth at 100 uM incubated for 24 hrs by CCK8 assay relative to control; type: toxicity, cell-based

| Compound | inhibition at 24 h, 100 µM [1] | MIC (Staphylococcus aureus [2]) | MIC (Staphylococcus aureus [3]) | MIC (Staphylococcus aureus [4]) | MIC (Staphylococcus aureus [5]) | MIC (Staphylococcus aureus [6]) | inhibition [7] | inhibition at 24 h, 100 µM [8] |
| --- | --- | --- | --- | --- | --- | --- | --- | --- |
| COc1cc(C(C)C)c(Oc2cnc(N)nc2N)cc1-c1ccc2c(c1)OCCO2 | 19.6% | 0.5 µg/mL (≈ 1.22 µM) | 0.25 µg/mL (≈ 0.612 µM) | 4 µg/mL (≈ 9.79 µM) | 16 µg/mL (≈ 39.2 µM) | 16 µg/mL (≈ 39.2 µM) | 27.2% | 64.7% |
| CC(C)c1cc(OCC2CCCCC2)c(I)cc1Oc1cnc(N)nc1N | 36.7% | 0.5 µg/mL (≈ 1.04 µM) | 0.5 µg/mL (≈ 1.04 µM) | > 32 µg/mL | 32 µg/mL (≈ 66.3 µM) | > 32 µg/mL | 59.8% | 65% |
| CCCCCCOc1cc(C(C)C)c(Oc2cnc(N)nc2N)cc1I | 41.5% | 1 µg/mL (≈ 2.13 µM) | 1 µg/mL (≈ 2.13 µM) | 8 µg/mL (≈ 17 µM) | 8 µg/mL (≈ 17 µM) | 4 µg/mL (≈ 8.5 µM) | 42.9% | 66% |
| CC(C)CCOc1cc(C(C)C)c(Oc2cnc(N)nc2N)cc1I | 64% | 0.125 µg/mL (≈ 0.274 µM) | 0.125 µg/mL (≈ 0.274 µM) | 2 µg/mL (≈ 4.38 µM) | 8 µg/mL (≈ 17.5 µM) | 8 µg/mL (≈ 17.5 µM) | 79.6% | 35.6% |
| CCOc1cc(C(C)C)c(Oc2cnc(N)nc2N)cc1I | 57.9% | 0.016 µg/mL (≈ 0.0386 µM) | 0.016 µg/mL (≈ 0.0386 µM) | 0.25 µg/mL (≈ 0.604 µM) | 4 µg/mL (≈ 9.66 µM) | 4 µg/mL (≈ 9.66 µM) | 42.6% | 13.9% |
| COc1cc(C(C)C)c(Oc2cnc(N)nc2N)cc1C | 15.6% | 1 µg/mL (≈ 3.47 µM) | 1 µg/mL (≈ 3.47 µM) | 4 µg/mL (≈ 13.9 µM) | 16 µg/mL (≈ 55.5 µM) | 32 µg/mL (≈ 111 µM) | 65.9% | 57.3% |
| COc1cc(C(C)C)c(Oc2cnc(N)nc2N)cc1-c1cc(C)cc(C)c1 | 29.7% | 0.5 µg/mL (≈ 1.32 µM) | 0.5 µg/mL (≈ 1.32 µM) | 2 µg/mL (≈ 5.28 µM) | 8 µg/mL (≈ 21.1 µM) | 16 µg/mL (≈ 42.3 µM) | 64.6% | 68.8% |
| CCCCOc1cc(C(C)C)c(Oc2cnc(N)nc2N)cc1-c1ccc(C(C)C)cc1 | 46.6% | 1 µg/mL (≈ 2.3 µM) | 2 µg/mL (≈ 4.6 µM) | 8 µg/mL (≈ 18.4 µM) | 4 µg/mL (≈ 9.2 µM) | 2 µg/mL (≈ 4.6 µM) | 64% | 40.9% |
| CCC(C)c1cc(OC)c(I)cc1Oc1cnc(N)nc1N (stereo not given) | 28.5% | 0.125 µg/mL (≈ 0.302 µM) | 0.125 µg/mL (≈ 0.302 µM) | 1 µg/mL (≈ 2.41 µM) | 8 µg/mL (≈ 19.3 µM) | 16 µg/mL (≈ 38.6 µM) | 56.3% | 62.7% |
| CC(C)c1cc(OCCc2ccccc2)c(I)cc1Oc1cnc(N)nc1N | 62% | 0.125 µg/mL (≈ 0.255 µM) | 0.125 µg/mL (≈ 0.255 µM) | 2 µg/mL (≈ 4.08 µM) | 4 µg/mL (≈ 8.16 µM) | 4 µg/mL (≈ 8.16 µM) | 76.4% | 33.7% |
| CCCC(C)Oc1cc(C(C)C)c(Oc2cnc(N)nc2N)cc1I (stereo not given) | 55.6% | 0.063 µg/mL (≈ 0.138 µM) | 0.063 µg/mL (≈ 0.138 µM) | 2 µg/mL (≈ 4.38 µM) | 4 µg/mL (≈ 8.77 µM) | 4 µg/mL (≈ 8.77 µM) | 31.7% | 11.5% |
| COc1cc(OC)cc(-c2cc(Oc3cnc(N)nc3N)c(C(C)C)cc2OC)c1 | 29.7% | 2 µg/mL (≈ 4.87 µM) | 2 µg/mL (≈ 4.87 µM) | 8 µg/mL (≈ 19.5 µM) | 32 µg/mL (≈ 78 µM) | 32 µg/mL (≈ 78 µM) | 40.5% | 66.8% |
| COc1cc(C(C)C)c(Oc2cnc(N)nc2N)cc1-c1cc(C(F)(F)F)cc(C(F)(F)F)c1 | 38.6% | 4 µg/mL (≈ 8.22 µM) | 8 µg/mL (≈ 16.4 µM) | 8 µg/mL (≈ 16.4 µM) | 8 µg/mL (≈ 16.4 µM) | 8 µg/mL (≈ 16.4 µM) | > 100% | 64.2% |
| COc1cc(Cc2cnc(N)nc2N)cc(OC)c1OC [TRIMETHOPRIM] | 2.93% | 0.5 µg/mL (≈ 1.72 µM) | 0.5 µg/mL (≈ 1.72 µM) | 32 µg/mL (≈ 110 µM) | 16 µg/mL (≈ 55.1 µM) | 16 µg/mL (≈ 55.1 µM) |  | 8.06% |
| COc1cc(C(C)C)c(Oc2cnc(N)nc2N)cc1-c1cccc(Cl)c1 | 29.3% | 0.063 µg/mL (≈ 0.164 µM) | 0.063 µg/mL (≈ 0.164 µM) | 1 µg/mL (≈ 2.6 µM) | 4 µg/mL (≈ 10.4 µM) | 4 µg/mL (≈ 10.4 µM) | 67.2% | 18.8% |
| CC(C)c1cc(O)c(I)cc1Oc1cnc(N)nc1N | 30.1% | 0.125 µg/mL (≈ 0.324 µM) | 0.125 µg/mL (≈ 0.324 µM) | 0.5 µg/mL (≈ 1.29 µM) | 4 µg/mL (≈ 10.4 µM) | 4 µg/mL (≈ 10.4 µM) | 61.7% | 3% |
| COc1cc(C(C)C)c(Oc2cnc(NC(C)=O)nc2NC(C)=O)cc1I | 26.7% | > 32 µg/mL | > 32 µg/mL | > 32 µg/mL | > 32 µg/mL | > 32 µg/mL | 32.6% | 18.2% |
| CC(C)c1ccc(-c2cc(Oc3cnc(N)nc3N)c(C(C)C)cc2OCC2CC2)cc1 | 19.3% | 1 µg/mL (≈ 2.31 µM) | 1 µg/mL (≈ 2.31 µM) | 4 µg/mL (≈ 9.25 µM) | 2 µg/mL (≈ 4.62 µM) | 4 µg/mL (≈ 9.25 µM) | 75.4% | 30.2% |
| COc1ccc(-c2cc(Oc3cnc(N)nc3N)c(C(C)C)cc2OC)cc1 | 19.9% | 0.25 µg/mL (≈ 0.657 µM) | 0.125 µg/mL (≈ 0.329 µM) | 1 µg/mL (≈ 2.63 µM) | 16 µg/mL (≈ 42.1 µM) | 16 µg/mL (≈ 42.1 µM) | 19.9% | 69.5% |
| COc1cc(C(C)C)c(Oc2cnc(N)nc2N)cc1-c1ccncc1 | 2.09% | 1 µg/mL (≈ 2.85 µM) | 1 µg/mL (≈ 2.85 µM) | 4 µg/mL (≈ 11.4 µM) | > 32 µg/mL | 32 µg/mL (≈ 91.1 µM) | 37.2% | 6.02% |
| CC(C)c1cc(OCC2CC2)c(-c2ccc(OC(F)(F)F)cc2)cc1Oc1cnc(N)nc1N | 22.9% | 0.5 µg/mL (≈ 1.05 µM) | 0.5 µg/mL (≈ 1.05 µM) | 4 µg/mL (≈ 8.43 µM) | 2 µg/mL (≈ 4.22 µM) | 4 µg/mL (≈ 8.43 µM) | 78.9% | 31.3% |
| COc1cc(C(C)C)c(Oc2cnc(N)nc2N)cc1-c1ccccc1 | 49.2% | 0.5 µg/mL (≈ 1.43 µM) | 0.25 µg/mL (≈ 0.713 µM) | 2 µg/mL (≈ 5.71 µM) | 32 µg/mL (≈ 91.3 µM) | 32 µg/mL (≈ 91.3 µM) |  | 74.2% |
| CC(C)c1cc(OCC2CC2)c(-c2cc(Cl)cc(Cl)c2)cc1Oc1cnc(N)nc1N | 27.5% | 0.5 µg/mL (≈ 1.09 µM) | 0.5 µg/mL (≈ 1.09 µM) | 2 µg/mL (≈ 4.35 µM) | 2 µg/mL (≈ 4.35 µM) | 4 µg/mL (≈ 8.71 µM) | 89.2% | 35.8% |
| COc1cccc(OC)c1C(=O)N[C@@H]1C(=O)N2[C@@H]1SC(C)(C)[C@@H]2C(=O)O [METHICILLIN] |  | 1 µg/mL (≈ 2.63 µM) | 128 µg/mL (≈ 336 µM) | 64 µg/mL (≈ 168 µM) | 1 µg/mL (≈ 2.63 µM) | 1 µg/mL (≈ 2.63 µM) |  |  |
| CCCCOc1cc(C(C)C)c(Oc2cnc(N)nc2N)cc1-c1cc(Cl)cc(Cl)c1 | 43% | 2 µg/mL (≈ 4.33 µM) | 1 µg/mL (≈ 2.17 µM) | 8 µg/mL (≈ 17.3 µM) | 8 µg/mL (≈ 17.3 µM) | 8 µg/mL (≈ 17.3 µM) | 75% | 42.5% |
